Source: US5532229A, “Topical administration of vitamin D to mammals” (priority 1994, dated 1996)

Key:
[1] = cited from earlier work
[2] = Experiment 2: uptake of [14C]-vitamin D3 tracer into serum and conversion to [14C]-25(OH)D3; format: in vivo, Male Wistar rats; conditions: tracer added to last day's dose
Description: One dose of [carbon-14]-labelled vitamin D3 was given at the time of the last of 14 daily doses of nonradioactive vitamin D3. The graphs show the uptake and metabolism of one [^14 C]-vitamin D3 dose during the course of gastric or dermal supplementation with vitamin D3. The tracer was given in addition to the usual, 8 μg/day vitamin D3 dose, and by the same route. Radioactivity in serum was isolated by chromatography to measure that which elutes as vitamin D3, or as […], Each point is the mean of results from six rats;
Uptake of radioactive vitamin D3 from skin or gut during the longer term treatment with vitamin D3 at 20 nmol/day.
The previous experiment 1 involved only one acute dose of a minute, tracer amount of vitamin D3. It remained possible that dermal application could not deliver a larger, more nutritionally relevant amount of vitamin D3. This experiment 2 looked at what happens when vitamin D3 is given during the course of daily treatment with a moderate amount of vitamin D3.
After 30 days, the rats were divided into three groups of 6: one group continued with no supplement, one group was given daily vitamin D3 supplement, 8 μg/day either by gastric tube, the third received the supplement by application to the skin in 50 μL ethanol. Vitamin D3 was given for 3 wk. The day before the rats were killed, the vitamin D3 dose was supplemented with [^14 C]-labelled vitamin D3, 915,000 cpm per rat. Blood was obtained from the tail of each rat at 3 h, 9 h, and by heart puncture when the rats were anesthetized for killing, 24 h after giving the tracer. The blood was extracted and chromatographed to distinguish [^14 C]-vitamin D3 from the [^14 C]-25(OH)D3generated from it. Radioactivity was also measured in the liver, kidney, and adipose tissue. Serum nonradioactive 25(OH)D3 was also measured.

C=C1CC[C@H](O)C/C1=C/C=C1\CCC[C@]2(C)[C@@H]([C@H](C)CCCC(C)C)CC[C@@H]12 [vitamin D3]
solubility in water [1]: not soluble in water
rate of uptake into circulation, dermal vs gastric [2]: more slowly when given via the dermal route
